The values that follow are results of earlier work, collected in PMC7904743, “WIDOCK: a reactive docking protocol for virtual screening of covalent inhibitors” (Journal of Computer-Aided Molecular Design, 2021).

Read-outs that look alike come from different tables or passages of the source.

For series [1] the following is noted: thiol reactivity, cited from earlier work.
For series [2], the system named is OTUB2. The note with it: experimental actives if % labeling higher than 50%; cited from earlier work.
Series [3] deals with NUDT7. The note with it: protein labeling at 200 μM; experimental actives if % labeling higher than 50%; cited from earlier work.
Setting [4] is: natural log of average rate constant k.
Setting [5] is: natural logarithm of average rate constant.

Take `Cc1ccccc1C(C)NC(=O)CCl` (stereo not shown) [PCM-0102390, Cc1ccccc1C(C)NC(=O)CCl]: the “ln(avg k)” value in series [1] (setting [4]) and in series [1] (setting [5]) was -16.582 each time. Besides, in series [2], the OTUB2 % labeling is listed as 26%. Besides, the NUDT7 % labeling in series [3] is given as 10%.

In the case of `O=C(CCl)NCC(=O)N1CCCC1` [PCM-0102391, O=C(CCl)NCC(=O)N1CCCC1], the “ln(avg k)” value in series [1] (setting [4]) and in series [1] (setting [5]) was -17.246 in each case. Further, the OTUB2 % labeling in series [2] is listed as 0%. Also, the NUDT7 % labeling in series [3] is on record as 0%.

`O=C(CCl)Nc1ccc([N+](=O)[O-])cc1Cl` [PCM-0102392, O=C(CCl)Nc1ccc([N+](=O)[O-])cc1Cl]: the “ln(avg k)” value in series [1] (setting [4]) and in series [1] (setting [5]) was -15.878 in each case. The OTUB2 % labeling in series [2] is on record as 21%. Besides, in series [3], the NUDT7 % labeling is 16%.

`O=C(CCl)N1CCCC1c1cccs1` (stereo not shown) [PCM-0102393, O=C(CCl)N1CCCC1c1cccs1]: the “ln(avg k)” value in series [1] (setting [4]) and in series [1] (setting [5]) was -15.246 in each case. The OTUB2 % labeling in series [2] was 0%. Besides, the NUDT7 % labeling in series [3] is on record as 36%.

Regarding `Cc1cc(C)cc(NC(=O)CCl)c1` [PCM-0102394, Cc1cc(C)cc(NC(=O)CCl)c1], the “ln(avg k)” value in series [1] (setting [4]) and in series [1] (setting [5]) was -15.891 each time. The OTUB2 % labeling in series [2] was 22%. Also, the NUDT7 % labeling in series [3] is reported as 0%.

Consider `N#Cc1ccccc1S(=O)(=O)N1CCN(C(=O)CCl)CC1` [PCM-0102395, N#Cc1ccccc1S(=O)(=O)N1CCN(C(=O)CCl)CC1], for which the “ln(avg k)” value in series [1] (setting [4]) and in series [1] (setting [5]) was -15.498 each time. The OTUB2 % labeling in series [2] was 0%. Further, the NUDT7 % labeling in series [3] was 28%.

Take `O=C(CCl)Nc1cccc2ccccc12` [PCM-0102396, O=C(CCl)Nc1cccc2ccccc12]: the “ln(avg k)” value in series [1] (setting [4]) and in series [1] (setting [5]) was -16.060 throughout. Besides, the OTUB2 % labeling in series [2] is 54%. For the same compound, in series [3], the NUDT7 % labeling was 12%.

Take `O=C(CCl)N1CCN(Cc2ccc3c(c2)OCO3)CC1` [PCM-0102397, O=C(CCl)N1CCN(Cc2ccc3c(c2)OCO3)CC1]: the “ln(avg k)” value in series [1] (setting [4]) and in series [1] (setting [5]) was -15.445 each time. Besides, the OTUB2 % labeling in series [2] is recorded as 0%. The NUDT7 % labeling in series [3] is 0%.

With `Cc1ccc(C)c(NC(=O)CCl)c1` [PCM-0102398, Cc1ccc(C)c(NC(=O)CCl)c1], the “ln(avg k)” value in series [1] (setting [4]) and in series [1] (setting [5]) was -16.327 each time. Also, the OTUB2 % labeling in series [2] was 0%. Also, in series [3], the NUDT7 % labeling is reported as 0%.

In the case of `Cc1ccc(CN(C)C(=O)CCl)o1` [PCM-0102399, Cc1ccc(CN(C)C(=O)CCl)o1], the “ln(avg k)” value in series [1] (setting [4]) and in series [1] (setting [5]) was -15.728 throughout. Further, the OTUB2 % labeling in series [2] is 0%. In addition, in series [3], the NUDT7 % labeling is reported as 5%.

On to `O=C(CCl)Nc1ccc(C(=O)O)cc1` [PCM-0102400, O=C(CCl)Nc1ccc(C(=O)O)cc1], for which the “ln(avg k)” value in series [1] (setting [4]) and in series [1] (setting [5]) was -16.430 throughout. Also, in series [2], the OTUB2 % labeling is recorded as 0%. Moreover, the NUDT7 % labeling in series [3] is listed as 0%.

Consider `CN(Cc1ccc(Br)cc1)C(=O)CCl` [PCM-0102401, CN(Cc1ccc(Br)cc1)C(=O)CCl], for which the “ln(avg k)” value in series [1] (setting [4]) and in series [1] (setting [5]) was -15.733 in each case. In series [2], the OTUB2 % labeling is 0%. For the same compound, the NUDT7 % labeling in series [3] is recorded as 58%.

As for `CC(NC(=O)CCl)C12CC3CC(CC(C3)C1)C2` (stereo not shown) [PCM-0102402, CC(NC(=O)CCl)C12CC3CC(CC(C3)C1)C2], the “ln(avg k)” value in series [1] (setting [4]) and in series [1] (setting [5]) was -17.061 each time. Further, the OTUB2 % labeling in series [2] is given as 24%. Also, the NUDT7 % labeling in series [3] was 7%.

For the compound `O=C(CCl)NC1C2CC3CC(C2)CC1C3` (stereo not shown) [PCM-0102404, O=C(CCl)NC1C2CC3CC(C2)CC1C3], the “ln(avg k)” value in series [1] (setting [4]) and in series [1] (setting [5]) was -16.228 throughout. Moreover, the OTUB2 % labeling in series [2] is given as 33%. For the same compound, in series [3], the NUDT7 % labeling is recorded as 0%.

As for `O=C(CCl)N1CCN(C2CCS(=O)(=O)C2)CC1` (stereo not shown) [PCM-0102405, O=C(CCl)N1CCN(C2CCS(=O)(=O)C2)CC1], the “ln(avg k)” value in series [1] (setting [4]) and in series [1] (setting [5]) was -15.476 in each case. Further, the OTUB2 % labeling in series [2] was 0%. Moreover, in series [3], the NUDT7 % labeling is given as 0%.

In the case of `O=C(CCl)Nc1ccc([N+](=O)[O-])cc1C(F)(F)F` [PCM-0102406, O=C(CCl)Nc1ccc([N+](=O)[O-])cc1C(F)(F)F], the “ln(avg k)” value in series [1] (setting [4]) and in series [1] (setting [5]) was -16.390 each time. In addition, the OTUB2 % labeling in series [2] is given as 0%. For the same compound, the NUDT7 % labeling in series [3] is listed as 0%.

As for `CS(=O)(=O)c1cccc(NC(=O)CCl)c1` [PCM-0102407, CS(=O)(=O)c1cccc(NC(=O)CCl)c1], the “ln(avg k)” value in series [1] (setting [4]) and in series [1] (setting [5]) was -15.426 each time. Also, in series [2], the OTUB2 % labeling was 33%. Moreover, the NUDT7 % labeling in series [3] was 0%.

With `O=C(CCl)Nc1ccc2c(c1)OCCCO2` [PCM-0102409, O=C(CCl)Nc1ccc2c(c1)OCCCO2], the “ln(avg k)” value in series [1] (setting [4]) and in series [1] (setting [5]) was -15.744 each time. Also, in series [2], the OTUB2 % labeling was 23%. Further, in series [3], the NUDT7 % labeling was 10%.

In the case of `COc1cccc(NC(=O)CCl)c1` [PCM-0102410, COc1cccc(NC(=O)CCl)c1], the “ln(avg k)” value in series [1] (setting [4]) and in series [1] (setting [5]) was -15.888 each time. In addition, the OTUB2 % labeling in series [2] is listed as 0%. Also, the NUDT7 % labeling in series [3] was 0%.

In the case of `O=C(CCl)NC(=O)NC1CC1` [PCM-0102411, O=C(CCl)NC(=O)NC1CC1], the “ln(avg k)” value in series [1] (setting [4]) and in series [1] (setting [5]) was -16.777 throughout. Also, in series [2], the OTUB2 % labeling is on record as 0%. Besides, in series [3], the NUDT7 % labeling is 0%.

With `O=C(CCl)Nc1cc(Cl)ccc1C(=O)O` [PCM-0102412, O=C(CCl)Nc1cc(Cl)ccc1C(=O)O], the “ln(avg k)” value in series [1] (setting [4]) and in series [1] (setting [5]) was -17.207 throughout. Moreover, in series [2], the OTUB2 % labeling is reported as 7%. The NUDT7 % labeling in series [3] was 16%.

Take `O=C(CCl)N1CCSc2ccccc21` [PCM-0102415, O=C(CCl)N1CCSc2ccccc21]: the “ln(avg k)” value in series [1] (setting [4]) and in series [1] (setting [5]) was -15.511 in each case. Besides, the OTUB2 % labeling in series [2] was 16%. In addition, the NUDT7 % labeling in series [3] was 10%.

Take `CS(=O)(=O)N1CCN(C(=O)CCl)CC1` [PCM-0102417, CS(=O)(=O)N1CCN(C(=O)CCl)CC1]: the “ln(avg k)” value in series [1] (setting [4]) and in series [1] (setting [5]) was -15.539 each time. In addition, the OTUB2 % labeling in series [2] is 0%. Also, the NUDT7 % labeling in series [3] was 0%.

Regarding `CC1CCc2c(sc(NC(=O)CCl)c2C#N)C1` (stereo not shown) [PCM-0102420, CC1CCc2c(sc(NC(=O)CCl)c2C#N)C1], the “ln(avg k)” value in series [1] (setting [4]) and in series [1] (setting [5]) was -16.452 each time. For the same compound, the OTUB2 % labeling in series [2] is on record as 0%. In addition, the NUDT7 % labeling in series [3] is reported as 47%.

On to `O=C(CCl)N1CCCC(c2nc3ccccc3s2)C1` (stereo not shown) [PCM-0102425, O=C(CCl)N1CCCC(c2nc3ccccc3s2)C1], for which the “ln(avg k)” value in series [1] (setting [4]) and in series [1] (setting [5]) was -15.591 in each case. In series [2], the OTUB2 % labeling was 0%. For the same compound, the NUDT7 % labeling in series [3] is on record as 28%.
